Results reported in US20090137664A1, “SAURURUS CERNUUS COMPOUNDS THAT INHIBIT CELLULAR RESPONSES TO HYPOXIA” (priority 2003, published 2009).

Assays:
[1] = tested on: SF-295; assay: NCI in vitro cell line screen (SRB), CNS Cancer SF-295; assay type: cell-based
Description: (§1) For exemplary purposes, an embodiment of the present invention was tested for activity with respect to certain cancer cell lines. The following Tables show results from in vitro 60-cell line antitumor testing from the US National Cancer Institute Developmental Therapeutics Program (NCI-DTP) on compound 2. The testing was in connection with the NCI's In Vitro Cell Line Screening Project (IVCLSP). Detailed information regarding the experiments and their interpretation is available from the NCI.

[2] = molecular target: T1, recombinant VEGF protein standard (Homo sapiens, UniProt P15692); assay: interference with the VEGF ELISA using VEGF standard
T1 construct: purchased R & D Systems
T1 sequence (P15692 27-191 isoform P15692-4): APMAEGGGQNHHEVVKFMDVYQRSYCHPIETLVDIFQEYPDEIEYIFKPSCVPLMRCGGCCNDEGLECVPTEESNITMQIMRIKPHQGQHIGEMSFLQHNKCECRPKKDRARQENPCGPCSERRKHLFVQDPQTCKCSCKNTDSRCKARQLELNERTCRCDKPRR
Description: The effects of compounds 1 and 2 on hypoxic induction of secreted VEGF protein are examined in T47D cells. Exponentially grown T47D cells are plated at the density of 30,000 cells/well into 96-well plates. Compound treatment and hypoxic exposure are the same as described. Following incubation, the concentration of secreted VEGF protein in the conditioned media is determined by ELISA (R & D Systems) and the data normalized by the number of viable cells. Results shown in FIG. 4 are averages from a representative experiment performed in quadruplicate, the bars represent standard error. An asterisk (*) indicates the level of significance (p<0.01) relative to the hypoxic control, two asterisks (**) (p<0.0001), and no asterisk indicates no statistical difference (ANOVA and Fisher's PLSD post hoc test).
As discussed earlier, one important HIF-1 target gene is VEGF, a key factor for tumor angiogenesis. Compounds that can inhibit both HIF-1 activation and the production of secreted VEGF protein represent potential efficacious chemotherapeutic agents that inhibit both tumor survival and hypoxia induced angiogenesis. […] Following incubation, the concentration of secreted VEGF protein in the conditioned media is determined by ELISA (R & D Systems) and the data normalized by the number of viable cells. […] The level of significance (p<0.01) is determined by ANOVA and Fisher's PLSD post hoc test. […]

[3] = tested on: SK-MEL-5; assay: NCI in vitro cell line screen (SRB), Melanoma SK-MEL-5; assay type: cell-based
Description: as §1

[4] = tested on: HOP-62; assay: NCI in vitro cell line screen (SRB), Non-Small Cell Lung Cancer HOP-62; assay type: cell-based
Description: as §1

[5] = tested on: UACC-257; assay: NCI in vitro cell line screen (SRB), Melanoma UACC-257; assay type: cell-based
Description: as §1

[6] = tested on: DU-145; assay: NCI in vitro cell line screen (SRB), Prostate Cancer DU-145; assay type: cell-based
Description: as §1

[7] = tested on: HIF-1β protein; assay: Western blot, HIF-1β protein in T47D nuclear extract; assay type: cell-based, human
Description: Due to the low abundance of HIF-1α protein in whole cell extract, nuclear extract is prepared and the level of HIF-1α protein in the nuclear extract determined by Western blot. Briefly, exponentially grown T47D cells are exposed to compound 2 for 30 minutes. […] Nuclear extracts are prepared from control and treated cells, separated on a SDS/PAGE gel, the separated proteins transferred to a nitrocellulose membrane, incubated with the primary antibodies (anti-HIF-1α, and anti-HIF-1β monoclonal antibodies, Novus Biologicals), secondary antibody biotinylated anti-mouse immunoglobulin G and Vectastain ABC reagent (Vector Laboratories), and developed using ECL reagents (Amersham Biosciences). […] No change in HIF-1β protein level is observed across the treatments. It is reasonable to conclude that the selectivity of compound 2 towards hypoxia-activated HIF-1 is caused by selective blockade of the hypoxic induction of HIF-1 protein.

[8] = tested on: HL-60(TB); assay: NCI in vitro cell line screen (SRB), Leukemia HL-60(TB); assay type: cell-based
Description: as §1

[9] = Homo sapiens, read-out: LC50 (the source's name)

## COc1ccc([C@@H](O)[C@@H](C)Oc2ccc([C@H]3O[C@H](c4ccc(O[C@H](C)[C@H](O)c5ccc6c(c5)OCO6)c(OC)c4)[C@H](C)[C@H]3C)cc2OC)cc1OC [Compound 2, manassantin B]
[1]
  TGI: 7.46E−5 Molar
[1]; Homo sapiens
  GI50: < 0.01 µM
[1]; [9]
  CC50: > 100 µM
[1]; Log10 Concentration −4.0 Molar
  Mean Optical Densities: 0.523
  Percent Growth: −2%
[1]; Log10 Concentration −5.0 Molar
  Mean Optical Densities: 0.621
  Percent Growth: 11%
[1]; Log10 Concentration −6.0 Molar
  Mean Optical Densities: 0.851
  Percent Growth: 39%
[1]; Log10 Concentration −7.0 Molar
  Mean Optical Densities: 0.811
  Percent Growth: 34%
[1]; Log10 Concentration −8.0 Molar
  Mean Optical Densities: 0.751
  Percent Growth: 27%
[2]
  interference with the ELISA assay: neither compound interferes
[3]
  TGI: 1.85E−6 Molar
[3]; Homo sapiens
  GI50: < 0.01 µM
[3]; [9]
  CC50: 9.04 µM
[3]; Log10 Concentration −4.0 Molar
  Mean Optical Densities: 0.097
  Percent Growth: −79%
[3]; Log10 Concentration −5.0 Molar
  Mean Optical Densities: 0.222
  Percent Growth: −53%
[3]; Log10 Concentration −6.0 Molar
  Mean Optical Densities: 0.771
  Percent Growth: 19%
[3]; Log10 Concentration −7.0 Molar
  Mean Optical Densities: 1.053
  Percent Growth: 38%
[3]; Log10 Concentration −8.0 Molar
  Mean Optical Densities: 0.980
  Percent Growth: 33%
[4]
  TGI: >1.00E−4 Molar
[4]; Homo sapiens
  GI50: 57.3 µM
[4]; [9]
  CC50: > 100 µM
[4]; Log10 Concentration −4.0 Molar
  Mean Optical Densities: 0.739
  Percent Growth: 44%
[4]; Log10 Concentration −5.0 Molar
  Mean Optical Densities: 0.893
  Percent Growth: 68%
[4]; Log10 Concentration −6.0 Molar
  Mean Optical Densities: 0.971
  Percent Growth: 81%
[4]; Log10 Concentration −7.0 Molar
  Mean Optical Densities: 0.982
  Percent Growth: 82%
[4]; Log10 Concentration −8.0 Molar
  Mean Optical Densities: 0.924
  Percent Growth: 73%
[5]
  TGI: >1.00E−4 Molar
[5]; Homo sapiens
  GI50: 1.09 µM
[5]; [9]
  CC50: > 100 µM
[5]; Log10 Concentration −4.0 Molar
  Mean Optical Densities: 1.165
  Percent Growth: 12%
[5]; Log10 Concentration −5.0 Molar
  Mean Optical Densities: 1.270
  Percent Growth: 23%
[5]; Log10 Concentration −6.0 Molar
  Mean Optical Densities: 1.558
  Percent Growth: 51%
[5]; Log10 Concentration −7.0 Molar
  Mean Optical Densities: 1.565
  Percent Growth: 52%
[5]; Log10 Concentration −8.0 Molar
  Mean Optical Densities: 1.673
  Percent Growth: 62%
[6]
  TGI: >1.00E−4 Molar
[6]; Homo sapiens
  GI50: 10.6 µM
[6]; [9]
  CC50: > 100 µM
[6]; Log10 Concentration −4.0 Molar
  Mean Optical Densities: 0.487
  Percent Growth: 28%
[6]; Log10 Concentration −5.0 Molar
  Mean Optical Densities: 0.623
  Percent Growth: 51%
[6]; Log10 Concentration −6.0 Molar
  Mean Optical Densities: 0.800
  Percent Growth: 81%
[6]; Log10 Concentration −7.0 Molar
  Mean Optical Densities: 0.831
  Percent Growth: 86%
[6]; Log10 Concentration −8.0 Molar
  Mean Optical Densities: 0.817
  Percent Growth: 83%
[7]
  HIF-1β protein level: No change
[8]
  TGI: >1.00E−4 Molar
[8]; Homo sapiens
  GI50: > 100 µM
[8]; [9]
  CC50: > 100 µM
[8]; Log10 Concentration −4.0 Molar
  Mean Optical Densities: 0.426
  Percent Growth: 58%
[8]; Log10 Concentration −5.0 Molar
  Mean Optical Densities: 0.491
  Percent Growth: 76%
[8]; Log10 Concentration −6.0 Molar
  Mean Optical Densities: 0.555
  Percent Growth: 93%
[8]; Log10 Concentration −7.0 Molar
  Mean Optical Densities: 0.543
  Percent Growth: 90%
[8]; Log10 Concentration −8.0 Molar
  Mean Optical Densities: 0.469
  Percent Growth: 70%
